In patent US11058654B2, “Compositions and methods for the treatment of hemoglobinopathies and thalassemias” (AXCELLA HEALTH INC., priority 2018, dated 2021):

Assays:
[1] = system: IL-6; assay: LPS-induced IL-6 secretion in primary human PBMC-derived macrophages (ELISA); format: cell-based; conditions: for effect on LPS-induced IL-6 secretion: in words
Description: (§1) Unpurified buffy coats (Research Blood Components) were carefully poured into 50 mL centrifuge tubes and diluted with room temperature Dulbecco's Phosphate Buffered Saline (dPBS) with Calcium and Magnesium (Gibco). Diluted buffy coats were further divided into four total 50 mL centrifuge tubes at 20 mL per tube. Lymphocyte Separation Medium (Corning) was carefully pipetted to the bottom of each centrifuge tube. Mixtures were centrifuged at 850× g for 32 minutes at 20° C. with 0 deceleration and acceleration.
(§2) The PBMC layer was separated from other components after centrifugation and added to new 50 mL centrifuge tube containing 25 mL dPBS. Total volume was brought up to 50 mL with dPBS and centrifuged at 600× g for 10 minutes at 20° C. with acceleration of 9, deceleration of 5. Supernatant was carefully removed from cell pellets. The cell pellets were resuspended using 10 mL dPBS. Total volume was then brought up to 50 mL using dPBS and centrifuged at 450× g for 5 min at 20° C. with acceleration of 9, deceleration of 9. The supernatant removal and cell pellet resuspension was repeated again.
(§3) The supernatant was then carefully removed from cell pellets. Cell pellets were resuspended in 10 mL dPBS without calcium or magnesium and filtered through a 70 uM cell strainer. The total PBMC number was determined using a Cellometer K2 automated cell counter. A total of 5E6 cells were saved for flow cytometric analysis. Remaining cells were centrifuged at 490× g for 5 minutes at 20° C. with acceleration of 9, deceleration of 9.
(§4) CD14+ cells were selected using EasySep™ Human CD14 Positive Selection Kit II ([…] Technologies). Cells were resuspended in cold EasySep™ Buffer ([…] Technologies) at 1×10^8 cells/mL. A total of 100 uL/mL EasySep™ Human CD14 Positive Selection Cocktail II was added to the cell suspension, mixed, and incubated at room temperature for 10 minutes. A total of 100 uL/mL RapidSpheres were added to the mixture and incubated at room temperature for 3 minutes after mixing, then RoboSep buffer was added to bring up the total volume to 10 mL. The mixture in a 15 mL tube was placed in magnet and incubated at room temperature for 3 minutes. Supernatant was discarded and 10 mL fresh EasySep™ buffer was added to 15 mL tube. The addition of RoboSep buffer, mixing, and discarding of supernatant was repeated two more times.
(§5) Negative and positive fractions were centrifuged at 490× g for 5 minutes at 20° C. with acceleration of 9, deceleration of 9, and resuspended in DMEM (Gibco) and 10% Heat Inactivated Fetal Bovine Serum (Atlanta Bio) and Penicillin/Streptomycin. Cells were counted and centrifuged again at […] for 5 minutes at 20° C. with acceleration of 9, deceleration of 9. After centrifugation, cell were resuspended in DMEM (Gibco) and 10% Heat Inactivated Fetal Bovine Serum (Atlanta Bio) and Penicillin/Streptomycin containing 500 U/mL […] and plated at 1-2×10^6 cells/mL on 10 cm tissue culture plates. Cells were kept in 37° C., 5% CO2 in between feedings/harvest.
(§6) Cells were fed every 3-4 days by removing media and unattached cells, centrifuging at 490× g for 5 minutes at 20 C with acceleration of 9, deceleration of 9, and resuspending in fresh DMEM (Gibco) and 10% Heat Inactivated Fetal Bovine Serum (Atlanta Bio) and Penicillin/Streptomycin containing GM-CSF. Resuspended cells were seeded back onto 10 cm tissue culture plates and incubated at 37° C., 5% CO2. Differentiated macrophages were used for subsequent experiments.
(§7) Primary human PMBC derived macrophages were seeded on day 0 at 3.0E4 cells per well in 96-well microplates (ThermoFisher) in Dulbecco's Modified Eagle Medium (DMEM) (Gibco) supplemented with penicillin-streptomycin (Hyclone) and 10% heat inactivated fetal bovine serum (HI-FBS) (Atlanta Bio) and incubated overnight at 37° C., 5% CO2. On day 1, cells were washed once with 150 uL per well DPBS (Gibco) and treated with 75 uL of: • a. […]

[2] = system: TNFa; assay: LPS-induced TNFa secretion in primary human PBMC-derived macrophages (ELISA); format: cell-based; conditions: for TNFa Measurements Mean (baseline subtracted): LPS; for effect on LPS-induced TNFa secretion: in words
Description: as §1, §2, §3, §4, §5, §6, §7

`N=C(N)NCCC[C@H](N)C(=O)O` [Arginine] was tested, and the “IL-6 Measurements Mean” value ([1]; Donor 1, Arginine Conc. 109 μM (baseline)) was 0, the “IL-6 Measurements Mean” value ([1]; Donor 1, Arginine Conc. 1088 μM, baseline subtracted) was −181.36 and the “IL-6 Measurements Mean” value ([1]; Donor 1, Arginine Conc. 2720 μM, baseline subtracted) was −186.57. The “IL-6 Measurements Mean” value ([1]; Donor 1, Arginine Conc. 5440 μM, baseline subtracted) was 357.4394, the “effect on LPS-induced IL-6 secretion” value ([1]; Donor 1) was “increased” and the “IL-6 Measurements Mean” value ([1]; Donor 2, Arginine Conc. 109 μM (baseline)) was 2.37E−15. The “IL-6 Measurements Mean” value ([1]; Donor 2, Arginine Conc. 1088 μM, baseline subtracted) was −9.701, the “IL-6 Measurements Mean” value ([1]; Donor 2, Arginine Conc. 2720 μM, baseline subtracted) was −13.6102 and the “IL-6 Measurements Mean” value ([1]; Donor 2, Arginine Conc. 5440 μM, baseline subtracted) was −12.4164. For the same compound, the “IL-6 Measurements Mean” value ([1]; Donor 3, Arginine Conc. 109 μM (baseline)) was 0, the “IL-6 Measurements Mean” value ([1]; Donor 3, Arginine Conc. 1088 μM, baseline subtracted) was 31.5786 and the “IL-6 Measurements Mean” value ([1]; Donor 3, Arginine Conc. 2720 μM, baseline subtracted) was −7.503. For the same compound, the “IL-6 Measurements Mean” value ([1]; Donor 3, Arginine Conc. 5440 μM, baseline subtracted) was −6.81, the “TNFa Measurements Mean (baseline subtracted)” value (shortened to “TNFa Measurements Mean”) ([2]; Donor 1, Conc. 109 μM (baseline)) was 0 and the “TNFa Measurements Mean” value ([2]; Donor 1, Conc. 1088 μM) was −24.33. For the same compound, the “TNFa Measurements Mean” value ([2]; Donor 1, Conc. 2720 μM) was 5.12, the “TNFa Measurements Mean” value ([2]; Donor 1, Conc. 5440 μM) was 62.06 and the “TNFa Measurements Mean” value ([2]; Donor 2, Conc. 109 μM (baseline)) was 1.42E−14. For the same compound, the “TNFa Measurements Mean” value ([2]; Donor 2, Conc. 1088 μM) was −12.7222, the “TNFa Measurements Mean” value ([2]; Donor 2, Conc. 2720 μM) was −3.763 and the “TNFa Measurements Mean” value ([2]; Donor 2, Conc. 5440 μM) was −0.5738. For the same compound, the “TNFa Measurements Mean” value ([2]; Donor 3, Conc. 109 μM (baseline)) was 3.55E−15, the “TNFa Measurements Mean” value ([2]; Donor 3, Conc. 1088 μM) was 3.131 and the “TNFa Measurements Mean” value ([2]; Donor 3, Conc. 2720 μM) was −0.9669. The “TNFa Measurements Mean” value ([2]; Donor 3, Conc. 5440 μM) was −1.767.
For `CC(=O)N[C@@H](CS)C(=O)O` [N-Acetyl Cysteine, N-acetylcysteine], the “IL-6 Measurements Mean” value ([1]; Donor 1, Conc. 0 X (baseline)) was 0, the “effect on LPS-induced IL-6 secretion” value ([1]; Donor 1) was “significantly reduced” and the “IL-6 Measurements Mean” value ([1]; Donor 2, Conc. 0 X (baseline)) was −2.4E−15. The “IL-6 Measurements Mean” value ([1]; Donor 2, Conc. 20 X, baseline subtracted) was −24.9999, the “effect on LPS-induced IL-6 secretion” value ([1]; Donor 2) was “significantly reduced” and the “IL-6 Measurements Mean” value ([1]; Donor 3, Conc. 0 X (baseline)) was −9.5E−15. For the same compound, the “effect on LPS-induced IL-6 secretion” value ([1]; Donor 3) was “significantly reduced”, the “effect on LPS-induced TNFa secretion” value ([2]; Donor 1) was “significantly reduced” and the “effect on LPS-induced TNFa secretion” value ([2]; Donor 2) was “significantly reduced”. For the same compound, the “effect on LPS-induced TNFa secretion” value ([2]; Donor 3) was “significantly reduced”.
`NC(=O)CC[C@H](N)C(=O)O` [Glutamine] was tested, and the “effect on LPS-induced IL-6 secretion” value ([1]; Donor 1) was “increased”, the “effect on LPS-induced IL-6 secretion” value ([1]; Donor 2) was “increased” and the “effect on LPS-induced IL-6 secretion” value ([1]; Donor 3) was “significantly increased”. For the same compound, the “effect on LPS-induced TNFa secretion” value ([2]; Donor 2) was “increased” and the “effect on LPS-induced TNFa secretion” value ([2]; Donor 3) was “increased”.
